A short description of series [1]: acute toxicity, oral administration, solution in Tween. Conditions: mouse, in vivo, souris, voie orale; for mortality: solution dans le Tween, read-out: mortalité. Here is the method:
(§1) La toxicité a été déterminée chez la souris. En solution dans le Tween et après administration par voie orale le COR37 05C entraine 0 % de mortalité à 500 mg/kg, 40 % à 750 et 40 % à 1000; le COR37 06C entraine 0 % de mortalité à 100 mg/kg, 10 % à 200, 10 % à 250, 90 % à 375, 100 % à 500 (DL50 = 294 mg/kg (261-332); les COR37 09C, COR37 49C et COR37 50C entrainent 0 % de mortalité à 300 mg/kg. En solution dans le Tween et après administration par voie intrapéritonéale le COR37 05C entraine 0 % de

Series [2] is described as follows: acute toxicity, intraperitoneal administration, solution in Tween. The class given is in vivo. Particulars: mouse, in vivo, ip, souris, voie intrapéritonéale, solution dans le Tween, read-out: mortalité.
The nature of series [3]: acute toxicity, intravenous administration. Conditions: mouse, in vivo, souris, voie intraveineuse, limits (53,8 - 59,5), read-out: DL50 (the source's name). Here is the method:
as §1
Par voie intraveineuse le COR37 05C présente une DL50 de 56,6 mg/kg (53,8 - 59,5).

Series [4] has as its system souris soumise à une anesthésie chloroformique profonde. The series is described as follows: antiarrhythmic activity, mouse under deep chloroform anaesthesia. Conditions: ip, read-out: dose active (activité antiarythmique). The class given is in vivo. Here is the method: L'activité antiarythmique a été déterminée sur plusieurs modèles expérimentaux. Dans le modèle de la souris soumise à une anesthésie chloroformique profonde le COR37 05C et le COR37 06C présentent après administration intrapéritonéale une activité antiarythmique dès la dose de 25 mg/kg; le COR37 50C est actif sur ce même modèle à 100 mg/kg. Le propranolol est actif dans les mêmes conditions à la dose de 40 mg/kg et la quinidine à la dose de 100 mg/kg.

The subject of series [5] is oreillette isolée de cobaye stimulée électriquement. The series is described as follows: antiarrhythmic activity in vitro, electrically stimulated isolated guinea pig atrium. Particulars: read-out: Ci30. The class given is cell-based. An excerpt: In vitro dans le modèle de l'oreillette isolée de cobaye stimulée électriquement le COR37 05C et le COR37 06C sont actifs avec des Ci30 de respectivement 6,22 (4,37-8,86) 10^-6 M/1 et 7,26.10^-6 (4,68.10^-6-1,12.10^-5) M/1 contre 10^-5 M/1 pour la procaïne, 4.10^-6 M/1 pour la quinidine et 4,5.10^-6 M/l pour le propranolol.

Series [6] deals with arythmies induites par l'aconitine. The experiment in a line: aconitine-induced arrhythmias in the rat. The class given is in vivo. Conditions: for pourcentage d'animaux ne présentant pas de fibrilloflutters: voie orale. How it is done:
Ces produits ont été testés dans le modèle des arythmies induites par l'aconitine chez le rat. Les résultats sont exprimés par le pourcentage d'augmentation de la quantité d'aconitine provoquant l'apparition d'extrasystoles (E), de fibrilloflutters (F), de tachycardies (T) et de morts (M). Administrés par voie intraveineuse 1 mn avant la perfusion d'aconitine, le COR37 05C entraine à 10 mg/kg 78 % (E), 87 % (T) et 83 % (M) d'activité et le COR37 06C à 5 mg/kg entraine 45 % (E), 39 % (T) et 79 % (M) d'activité. Administrés par voie orale 45 mn avant la perfusion d'aconitine à 100 mg/kg, le COR37 05C entraine 83 % (E), 99 % (T), 43 % (F) et 107 % (M) d'activité et le COR37 06C 25 % (E), 32 % (T), 29 % (F) et 105 % (M) d'activité. De plus le pourcentage d'animaux ne présentant pas de fibrilloflutters après administration de 100 mg/kg de COR37 05C et COR37 )6C par voie orale est respectivement de 70 et 60 %.

Series [7] has as its system cornée de cobaye. The series is described as follows: local anaesthetic activity, guinea pig cornea with tactile stimulus. The class given is in vivo. Conditions: concentration de 0,5 %. An excerpt:
L'activité anesthésique locale a été déterminée dans le test de la cornée de cobaye soumise à un stimulus tactile. Le COR37 06C employé à la concentration de 0,5 % est actif pendant 30 mn.

The subject of series [8] is plasma riche en plaquettes (PRP) de lapin. The series is described as follows: platelet aggregation in vitro induced by bovine collagen in rabbit PRP. The class given is cell-based. Conditions: 1 microg/ml, 0,05 ml de collagène bovin, read-out: inhibition de l'agrégation plaquettaire. Here is the method:
(§2) L'activité antiagrégante plaquettaire a été déterminée in vitro. Quand l'agrégation est induite par 0,05 ml d'une préparation standardisée de collagène bovin dans un plasma riche en plaquettes (PRP) de lapin, le COR37 06C entraine 100 % d'inhibition à 1 microg/ml alors que l'aspirine dans les mêmes conditions est active à 10 microg/ml et l'indométacine à 0,5 microg/ml. Dans le modèle de l'agrégation plaquettaire induite par […] d'ADP dans un PRP de lapin, à 100 microg/ml, le COR37 09C entraine 79 % d'activité, le COR37 50C entraine 80 % d'activité et l'adénosine 64 %.

In series [9] the test system is PRP de lapin. The series is described as follows: platelet aggregation in vitro induced by ADP in rabbit PRP. The class given is cell-based. Particulars: Oryctolagus cuniculus, 100 microg/ml, d'ADP, read-out: activité (agrégation plaquettaire induite par ADP). How it is done:
as §2

Series [10] relates to souris. The experiment in a line: acute toxicity, intraperitoneal administration, solution in Tween. Particulars: voie intrapéritonéale, 200 mg/kg, solution dans le Tween. The class given is in vivo.
The test system of series [11] is oreillette gauche de cobaye. The series is described as follows: calcium-antagonist activity in vitro, electrically stimulated guinea pig left atrium in low-calcium Tyrode. The class given is cell-based. Particulars: 100 Microg/ml; 150 battements/mn, Tyrode pauvre en calcium (0,6mM), addition de 0,6 mM de calcium. How it is done:
L'activité anticalcique a été déterminée in vitro sur oreillette gauche de cobaye stimulée électriquement à 150 battements/mn dans une solution de Tyrode pauvre en calcium (0,6mM).

The mark [12] stands for this setting: souris, anesthésie chloroformique profonde, administration intrapéritonéale.
Where [13] appears, read: oreillette isolée de cobaye stimulée électriquement, in vitro.
[14] abbreviates: voie intraveineuse 1 mn avant la perfusion d'aconitine, 10 mg/kg.
The mark [15] stands for this setting: voie orale 45 mn avant la perfusion d'aconitine, 100 mg/kg.
The mark [16] stands for this setting: voie intraveineuse 1 mn avant la perfusion d'aconitine, 5 mg/kg.

Like-named read-outs stand apart in the source and are kept apart here.

Take `CC(C)c1ccccc1NCC(O)CNC(C)(C)C` (centres unmarked) [COR37 05C, Dichlorhydrate de l'(isopropyl-2 anilino)-1 tertiobutylamino-3 propanol-2]: the mortality in series [1] (500 mg/kg) amounted to 0%; in series [1] (750 mg/kg), 40%; in [1] (1000 mg/kg), 40%; in series [2] (200 mg/kg) it was 0%. In [3], the LD50 is 56.6 mg/kg. In addition, the minimal effective dose in series [4] (setting [12]) worked out at 25 mg/kg. The IC30 in series [5] (setting [13]) was found to be 6.22 µM. Besides, the “pourcentage d'augmentation de la quantité d'aconitine provoquant l'apparition d'extrasystoles (E)” value stood at 78% in [6] (setting [14]) and 83% in series [6] (setting [15]). The entries for the “pourcentage d'augmentation de la quantité d'aconitine provoquant l'apparition de morts (M)” value in [6] (setting [14]) and in series [6] (setting [15]) were 83% and 107%, respectively. The figures for the “pourcentage d'augmentation de la quantité d'aconitine provoquant l'apparition de tachycardies (T)” value in [6] (setting [14]) and in series [6] (setting [15]) were 87% and 99%, respectively. Besides, the “pourcentage d'augmentation de la quantité d'aconitine provoquant l'apparition de fibrilloflutters (F)” value in series [6] (setting [15]) is 43%. In addition, the “pourcentage d'animaux ne présentant pas de fibrilloflutters” value in [6] (100 mg/kg) came to 70%.

Consider `Cc1cccc(C(C)C)c1NCC(O)CNC(C)(C)C` (centres unmarked) [COR37 06C, Dichlorhydrate de l'(isopropyl-2 méthyl-6 anilino)-1 tertiobutylamino-3 propanol-2], for which the mortality was found to be 0% in [1] (100 mg/kg); 10% in series [1] (200 mg/kg); 10% in series [1] (250 mg/kg); 90% in series [1] (375 mg/kg); 100% in series [1] (500 mg/kg); 0% in [2] (100 mg/kg). For the same compound, in [2] (200 mg/kg), the mortality came to 100%. Also, in series [1] (limits (261-332), read-out: DL50 (the source's name)), the LD50 is 294 mg/kg. Further, the minimal effective dose in series [4] (setting [12]) came out at 25 mg/kg. Further, the IC30 in series [5] (setting [13]) was found to be 7.26 µM. Further, the “pourcentage d'augmentation de la quantité d'aconitine provoquant l'apparition d'extrasystoles (E)” value in [6] (setting [16]) is 45%; in [6] (setting [15]), 25%. Further, the “pourcentage d'augmentation de la quantité d'aconitine provoquant l'apparition de morts (M)” value in series [6] (setting [16]) was 79%; in series [6] (setting [15]), 105%. Also, the entries for the “pourcentage d'augmentation de la quantité d'aconitine provoquant l'apparition de tachycardies (T)” value in series [6] (setting [16]) and in [6] (setting [15]) were 39% and 32%, respectively. Further, in [6] (setting [15]), the “pourcentage d'augmentation de la quantité d'aconitine provoquant l'apparition de fibrilloflutters (F)” value came out at 29%. In addition, the “pourcentage d'animaux ne présentant pas de fibrilloflutters” value in [6] (100 mg/kg) amounted to 60%. Further, the “durée d'activité anesthésique locale” value in [7] amounted to 30 mn. Also, the inhibition at 1 µg/mL in series [8] worked out at 100%.

On to `Cc1ccc(NCC(O)CNC(C)(C)C)cc1` (centres unmarked) [COR37 09C, Dichlorhydrate du (méthyl-4 anilino)-1 tertiobutylamino-3 propanol-2], for which the mortality was determined as 0% in [1] (300 mg/kg), 0% in series [2] (50 mg/kg) and 100% in series [2] (100 mg/kg). The inhibition at 100 µg/mL in series [9] was determined as 79%.

Regarding `Cc1cccc(C(C)C)c1NCC(O)CN(C)C` (centres unmarked) [COR37 50C, Dichlorhydrate de l' (isopropyl-2 méthyl-6 anilino)-1 diméthylamino-3 propanol-2], the mortality in series [1] (300 mg/kg) amounted to 0%. In [10], the mortalité result was “aucune mortalité”. In [4] (setting [12]), the minimal effective dose is 100 mg/kg. Moreover, the inhibition at 100 µg/mL in series [9] came to 80%. The activité anticalcique result in series [11] is recorded as “inhibent l'augmentation de la force contractile”.

As for `Nc1ncnc2c1ncn2[C@@H]1O[C@H](CO)[C@@H](O)[C@H]1O` [adénosine, reference compound], the inhibition at 100 µg/mL in series [9] was determined as 64%.

As to `CCN(CC)CCOC(=O)c1ccc(N)cc1` [procaïne], the IC30 in series [5] (setting [13]) came out at 10 µM.

Take `CC(C)NCC(O)COc1cccc2ccccc12` (centres unmarked) [propranolol, reference compound]: the minimal effective dose in series [4] was 40 mg/kg. In addition, the IC30 in series [5] worked out at 4.5 µM.

Regarding `C=C[C@H]1C[N@@]2CC[C@H]1C[C@@H]2[C@@H](O)c1ccnc2ccc(OC)cc12` [quinidine, reference compound], the minimal effective dose in series [4] worked out at 100 mg/kg. In [5], the IC30 was 4 µM.

Values taken from EP0148096A1, “Diversely substituted 1-arylamino-3-amino-2-propanols, process for their preparation and their therapeutical application” (CORTIAL S.A., priority 1983, dated 1985).
